In brackets after ≈: the same amount, converted by molar mass.
Columns and labels:
[1] = Antiplatelet activity in human platelet rich plasma assessed as inhibition of ADP-induced platelet aggregation; type: functional
[2] = Metabolic stability in rat microsomes; type: ADME, Microsome
[3] = Antiplatelet activity in human platelet rich plasma assessed as inhibition of ADP-induced platelet aggregation relative to AZD-6140; type: functional
[4] = Metabolic stability in human microsomes; type: ADME, Microsome
[5] = Volume of distribution at steady state in Sprague-Dawley rat at 2 mg/kg, iv and 5 mg/kg, po; type: ADME, organism-based; details: in vivo, read-out: Vdss
[6] = Clearance in Sprague-Dawley rat at 2 mg/kg, iv and 5 mg/kg, po; type: ADME, organism-based; details: in vivo
[7] = Effective half life in Sprague-Dawley rat at 2 mg/kg, iv and 5 mg/kg, po; type: ADME, organism-based; details: in vivo, read-out: t1/2eff (converted)
[8] = target: T1, P2Y purinoceptor 12 (Homo sapiens, UniProt Q9H244); assay: Inhibition of human P2Y12 receptor expressed in CHO cells
[9] = Solubility at pH 6.5; type: physicochemical; details: buffer
[10] = Clearance in Beagle dog at 0.5 mg/kg, iv and 1 mg/kg, po; type: ADME, organism-based, Canis lupus familiaris; details: in vivo
[11] = Effective half life in Beagle dog at 0.5 mg/kg, iv and 1 mg/kg, po; type: ADME, organism-based, Canis lupus familiaris; details: in vivo
[12] = Protein binding in human plasma assessed as fraction unbound at 0.2 uM
[13] = Solubility at pH 9.0; type: physicochemical; details: buffer
[14] = Volume of distribution at steady state in Beagle dog at 0.5 mg/kg, iv and 1 mg/kg, po; type: ADME, organism-based, Canis lupus familiaris; details: in vivo, read-out: Vdss
[15] = Solubility at pH 2.0; type: physicochemical; details: buffer
[16] = system: Rattus norvegicus; assay: Toxicity in rat administered as 7 day repeat dose; type: organism-based; details: in vivo, 168 h
[17] = Antiplatelet activity in human platelet rich plasma assessed as inhibition of ADP-induced platelet aggregation by chronolog PRP aggregometry assay; type: functional
[18] = Protein binding in human plasma assessed as fraction unbound at 10 uM
[19] = target: T1, P2Y purinoceptor 12; assay: Inhibition of human P2Y12 receptor expressed in CHO cells in presence of 0.4% human serum albumin
[20] = Protein binding in human plasma assessed as fraction unbound at 2 uM
[21] = target: Voltage-gated inwardly rectifying potassium channel KCNH2 (Homo sapiens, UniProt Q12809); assay: Inhibition of human ERG
[22] = Volume of distribution at steady state in Beagle dog at 0.2 mg/kg, iv and 0.2 mg/kg, po; type: ADME, organism-based, Canis lupus familiaris; details: in vivo, read-out: Vdss
[23] = Clearance in Beagle dog at 0.2 mg/kg, iv and 0.2 mg/kg, po; type: ADME, organism-based, Canis lupus familiaris; details: in vivo
[24] = Effective half life in Beagle dog at 0.2 mg/kg, iv and 0.2 mg/kg, po; type: ADME, organism-based, Canis lupus familiaris; details: in vivo
[25] = in vivo; details: Sprague-Dawley, rat, po, 5 mg/kg
[26] = system: Rattus norvegicus; assay: Toxicity in rat administered as single dose; type: organism-based; details: in vivo

T1 sequence (Q9H244 whole entry): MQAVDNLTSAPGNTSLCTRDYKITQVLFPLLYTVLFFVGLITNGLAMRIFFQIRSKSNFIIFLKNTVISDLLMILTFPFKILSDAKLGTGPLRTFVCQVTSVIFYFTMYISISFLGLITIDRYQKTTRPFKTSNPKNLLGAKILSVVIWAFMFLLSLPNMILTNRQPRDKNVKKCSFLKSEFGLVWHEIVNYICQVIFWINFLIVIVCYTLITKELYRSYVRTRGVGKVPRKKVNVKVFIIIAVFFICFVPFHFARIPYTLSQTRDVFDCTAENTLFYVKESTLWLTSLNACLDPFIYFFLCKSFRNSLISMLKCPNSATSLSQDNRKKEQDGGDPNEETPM
Voltage-gated inwardly rectifying potassium channel KCNH2, sequence (Q12809 whole entry): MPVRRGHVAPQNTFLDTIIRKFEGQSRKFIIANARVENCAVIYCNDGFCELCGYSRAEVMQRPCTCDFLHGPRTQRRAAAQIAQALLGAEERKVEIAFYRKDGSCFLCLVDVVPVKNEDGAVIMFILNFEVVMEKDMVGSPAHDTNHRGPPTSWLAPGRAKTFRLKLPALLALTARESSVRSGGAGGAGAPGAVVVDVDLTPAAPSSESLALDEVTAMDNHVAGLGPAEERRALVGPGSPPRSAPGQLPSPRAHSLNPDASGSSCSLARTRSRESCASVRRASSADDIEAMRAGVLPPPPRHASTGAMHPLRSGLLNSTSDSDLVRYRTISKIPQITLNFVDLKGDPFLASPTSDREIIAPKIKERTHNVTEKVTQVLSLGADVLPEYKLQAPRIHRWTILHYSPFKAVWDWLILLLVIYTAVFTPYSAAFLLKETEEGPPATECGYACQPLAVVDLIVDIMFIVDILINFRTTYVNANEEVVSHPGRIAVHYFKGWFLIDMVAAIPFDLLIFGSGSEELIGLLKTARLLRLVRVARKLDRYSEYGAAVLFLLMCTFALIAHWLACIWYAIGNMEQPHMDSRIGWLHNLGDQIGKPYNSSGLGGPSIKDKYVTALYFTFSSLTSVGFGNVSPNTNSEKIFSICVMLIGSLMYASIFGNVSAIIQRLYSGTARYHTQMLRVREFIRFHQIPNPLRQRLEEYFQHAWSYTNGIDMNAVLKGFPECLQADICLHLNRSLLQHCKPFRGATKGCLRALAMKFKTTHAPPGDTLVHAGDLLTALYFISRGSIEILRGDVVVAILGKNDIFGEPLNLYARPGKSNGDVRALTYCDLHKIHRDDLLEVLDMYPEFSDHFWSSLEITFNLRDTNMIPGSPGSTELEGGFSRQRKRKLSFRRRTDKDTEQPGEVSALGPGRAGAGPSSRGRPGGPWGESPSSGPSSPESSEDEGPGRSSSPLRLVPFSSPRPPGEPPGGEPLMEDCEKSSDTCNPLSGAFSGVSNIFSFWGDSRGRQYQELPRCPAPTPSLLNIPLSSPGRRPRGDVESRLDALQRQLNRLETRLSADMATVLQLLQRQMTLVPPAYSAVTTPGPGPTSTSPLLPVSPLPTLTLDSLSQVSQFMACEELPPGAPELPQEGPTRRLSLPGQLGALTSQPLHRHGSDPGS

Row | IC50 [1] | Stability [2] | Stability [4] | Vd [5] | clearance [6] | half-life [7] | Ki [8] | Structure (SMILES) | fold change (FC) [3] | other results
1 | 2300 nM | Stable | Stable | 2.4 L/kg | 70 mL/min/kg | 24 min | 22 nM | CCCCCOC(=O)N1CCN(C(=O)[C@H](CCC(=O)O)NC(=O)c2cc(N3CCN(C(C)=O)CC3)cc(-c3ccccc3)n2)CC1 | 2.7 | 
2 | 650 nM | Stable | Stable | 0.3 L/kg | 11 mL/min/kg | 18 min | 0.58 nM | CCCCCOC(=O)N1CCN(C(=O)[C@H](CCC(=O)O)NC(=O)c2cc(N3CCC(C(=O)NCC)CC3)cc(-c3ccccc3)n2)CC1 | 1 | 
3 | 660 nM | Stable | Stable | 0.8 L/kg | 41 mL/min/kg | 12 min | 5 nM | CCCCCOC(=O)N1CCN(C(=O)[C@H](CCC(=O)O)NC(=O)c2cc(N3CC[C@H](OCC(=O)N(C)C)C3)cc(-c3ccccc3)n2)CC1 | 0.75 | 
4 | 2400 nM | Stable | Stable | 2.2 L/kg | 44 mL/min/kg | 36 min | 6.5 nM | CCCCCOC(=O)N1CCN(C(=O)[C@H](CCC(=O)O)NC(=O)c2cc(N3CCC(C(N)=O)CC3)cc(-c3ccccc3)n2)CC1 | 0.9 | bioavailability [25]: 2%
5 | 2300 nM | Stable | Stable | 10 L/kg | 141 mL/min/kg | 48 min | 15 nM | CCCCCOC(=O)N1CCN(C(=O)[C@H](CCC(=O)O)NC(=O)c2cc(N3CCN(C)CC3)cc(-c3ccccc3)n2)CC1 | 2.5 | 
6 | 1000 nM | Stable | Stable |  |  |  | 1.9 nM | CCCCCOC(=O)N1CCN(C(=O)[C@H](CCC(=O)O)NC(=O)c2cc(N3CCC(CN(C)C)CC3)cc(-c3ccccc3)n2)CC1 | 1.3 | 
7 | 7100 nM | Stable | Stable |  |  |  | 13 nM | CCCCCOC(=O)N1CCN(C(=O)C(CCC(=O)O)NC(=O)c2cc(N3CCC(O)C3)cc(-c3ccccc3)n2)CC1 (mixture of isomers) | 3.9 | 
8 | 690 nM | Stable | Stable |  |  |  | 4.9 nM | CCCCCOC(=O)N1CCN(C(=O)[C@H](CCC(=O)O)NC(=O)c2cc(N3CCN(CC(=O)N(C)C)CC3)cc(-c3ccccc3)n2)CC1 | 1.1 | 
9 | 1900 nM | Stable | Stable |  |  |  | 6.5 nM | CCCCCOC(=O)N1CCN(C(=O)[C@H](CCC(=O)O)NC(=O)c2cc(N3CCNCC3)cc(-c3ccccc3)n2)CC1 | 2.3 | 

The next lines start with the compound.

Row | Structure (SMILES) | IC50 [1] | Stability [2] | Stability [4] | Vd [5] | clearance [6] | half-life [7] | Ki [8] | fold change (FC) [3] | other results
10 | CCCCCOC(=O)N1CCN(C(=O)[C@H](CCC(=O)O)NC(=O)c2cc(N3CCCC(CN4CCCC4)C3)cc(-c3ccccc3)n2)CC1 (stereo partly drawn) | 1700 nM | Stable | Stable | 1.8 L/kg | 47 mL/min/kg | 24 min | 7.3 nM | 1.5 | 
11 | CCCCOC(=O)N1CCN(C(=O)[C@H](CCC(=O)O)NC(=O)c2cc(N3CCC(C(=O)N(CC)CC)CC3)cc(-c3ccccc3)n2)CC1 | 430 nM | Stable | Stable | 0.9 L/kg | 24 mL/min/kg | 24 min | 1.1 nM | 0.71 | 
12 | CCCCCOC(=O)N1CCN(C(=O)[C@H](CCC(=O)O)NC(=O)c2cc(N3CCC(C(=O)N4CCCC4)CC3)cc(-c3ccccc3)n2)CC1 | 400 nM | Stable | Stable | 0.5 L/kg | 5 mL/min/kg | 66 min | 2.8 nM | 0.65 | solubility [9]: 48 µM (≈ 33.2 µg/mL); Kb [1]: 68 nM; clearance [10]: 2 mL/min/kg; half-life [11]: 60 min; fraction unbound at 0.2 µM [12]: 0.053; solubility [13]: 1290 µM (≈ 892 µg/mL); Vd [14]: 0.18 L/kg; solubility [15]: 299 µM (≈ 207 µg/mL); Activity [16]: Non-toxic; IC50 [17]: 325 nM; fraction unbound at 10 µM [18]: 0.061; Ki [19]: 6.7 nM; fraction unbound at 2 µM [20]: 0.057; IC50 [21]: > 90000 nM
13 | CCCCCOC(=O)N1CCN(C(=O)[C@H](CCC(=O)O)NC(=O)c2cc(N3CCC(C(=O)N(CC)CC)CC3)cc(-c3ccccc3)n2)CC1 | 520 nM | Stable | Stable | 2.5 L/kg | 13 mL/min/kg | 36 min | 4 nM | 0.65 | Vd [22]: 0.12 L/kg; clearance [23]: 2 mL/min/kg; half-life [24]: 42 min
14 | CCCCCOC(=O)N1CCN(C(=O)[C@H](CCC(=O)O)NC(=O)c2cc(N3CC[C@@H](OCC(=O)N(CC)CC)C3)cc(-c3ccccc3)n2)CC1 | 330 nM | Stable | Stable | 2.1 L/kg | 87 mL/min/kg | 18 min | 3.5 nM | 0.38 | 
15 | CCCCCOC(=O)N1CCN(C(=O)[C@H](CCC(=O)O)NC(=O)c2cc(N3CCC(CCN(C)C)CC3)cc(-c3ccccc3)n2)CC1 | 390 nM | Stable | Stable | 5.1 L/kg | 145 mL/min/kg | 24 min | 12 nM | 0.54 | 
16 | CCCCCOC(=O)N1CCN(C(=O)[C@H](CCC(=O)O)NC(=O)c2cc(N3CCC(C(=O)N4CCC4)CC3)cc(-c3ccccc3)n2)CC1 | 410 nM | Stable | Stable | 0.2 L/kg | 9 mL/min/kg | 18 min | 1.2 nM | 0.64 | 
17 | CCCCOC(=O)N1CCN(C(=O)[C@H](CCC(=O)O)NC(=O)c2cc(N3CCC(C(=O)N4CCCC4)CC3)cc(-c3ccccc3)n2)CC1 | 360 nM | Stable | Stable | 0.7 L/kg | 5 mL/min/kg | 90 min | 2.1 nM | 0.54 | solubility [9]: 195 µM (≈ 132 µg/mL); Kb [1]: 49 nM; clearance [10]: 3 mL/min/kg; half-life [11]: 48 min; fraction unbound at 0.2 µM [12]: 0.034; solubility [13]: 969 µM (≈ 656 µg/mL); Vd [14]: 0.22 L/kg; solubility [15]: 921 µM (≈ 623 µg/mL); IC50 [17]: 255 nM; fraction unbound at 10 µM [18]: 0.033; Ki [19]: 6.3 nM; fraction unbound at 2 µM [20]: 0.044; IC50 [21]: > 90000 nM; Activity [26]: Non-toxic
18 | CCCCCOC(=O)N1CCN(C(=O)[C@H](CCC(=O)O)NC(=O)c2cc(N3CCC(COC)CC3)cc(-c3ccccc3)n2)CC1 | 3900 nM | Stable | Stable |  |  |  |  | 3.3 | Vd [22]: 0.14 L/kg; clearance [23]: 1 mL/min/kg; half-life [24]: 90 min
19 | CCCCCOC(=O)N1CCN(C(=O)C(CCC(=O)O)NC(=O)c2cc(N3CCC(COC)C3)cc(-c3ccccc3)n2)CC1 (mixture of isomers) | 7300 nM | Stable | Stable |  |  |  | 31 nM | 10 | 

Reference: ChEMBL document CHEMBL1156904, “Part II: piperazinyl-glutamate-pyridines as potent orally bioavailable P2Y12 antagonists for inhibition of platelet aggregation” (Bioorg Med Chem Lett, 2010)
